Counter-ions that a name gives are not always drawn. Like-named read-outs stand apart in the source and are kept apart here.
What was measured:
[1] = test system: liver cancer H22; experiment: Inhibition assay of oral administration against liver cancer H22 (Example 33); assay type: in vivo, Kunming mice; conditions: oral gavage, sacrificed after 13 days; for Tumor weight: two cycles (5 days on, 2 off); for inhibitory ratio (%): two cycles
Procedure: (1) the negative control: PBS; (2) Xeloda group: 100 mg/kg/d; (3) TFU group: 70 mg/kg/d; (4) BC-01 group: 100 mg/kg/d.
[formula] [formula] [formula] 2.2: Inhibition Assay of Intravenous Administration Against Liver Cancer H22

[2] = test system: H22 tumor cells; experiment: Activities of compounds in H22 tumor cells bearing Kunming mice models (Example 34); conditions: for Tumor growth inhibition (%) / Tumor weight: after two cycles
Procedure: (§2) The ascites was extracted from H22 tumour bearing mice with well growth, followed by adding sterile PBS to dilute the ascites to a concentration of 8.5×10^7 cells/mL. 100 uL of the cells solution was suck up by a 1 mL sterile injector to inoculate into right oxter of mice. After 3 days, the mice were weighted and randomized to several groups (almost 8 mice per group, and a bit more in control group). These mice were administrated a predetermined dosage by intravenous or oral gavage with two days off when having administrated for 5 days until two cycles one of which had 7 days. The body weight of mouse was recorded at the beginning and ending of every cycle,
(§3) After being administrated for two cycles, the mice were weighted and recorded, then sacrificed by cervical dislocation to get lung, liver and spleen weighted respectively.
(§4) Overall difference was calculated by the function of one-way analysis of variance (One-Way ANOVA) in Origin 7.5 software; and t-test was used for pair-comparison between drug administrated group and blank group, and the inhibitory ratio of drug in each group was calculated based on the following equation: inhibitory ratio (100%)=(mean tumor weight of control group−mean tumor weight of drug administrated group)/mean tumor weight of control group×100.

[3] = test system: H22 tumor cells; conditions: Kunming, mouse, in vivo, 14 days
Procedure: as §2, §3, §4

[4] = test system: human leukemia cell line K562; experiment: MTT proliferation inhibition, K562; assay type: cell-based; conditions: Homo sapiens, K562, 48 h
Procedure: (§1) Human leukemia cell line K562, clear-cell ovarian carcinoma cell line ES-2, human prostate cancer cell line PC-3, human breast cancer cell line MCF-7, cell line Hela, human liver cancer cell line H7402 and human ovarian cancer cell line 3-AO were transferred into a culture flask and were cultured in a medium at 37° C. in a 5% CO2 and saturation humidity. One bottle of cells in logarithmic growth phase was picked out and was blew and beaten to be uniform with a pipette, then took some cell suspension solution to prepare blood counting plate smear to count cells under inverted microscope, and then adjusted the cell number to be 1×10^5/mL by adding some culture medium. Cells were seeded on a 96-well plate on which also drug tests performed. Blank control group, negative control group, positive control group and drug test group were established on the plate while the surrounding wells of the plate were not used (but filled with sterile PBS), wherein the blank control groups were prepared by addition of culture medium 150 μL per well, the negative control groups were prepared by addition of cell suspension solution 100 μL per well and culture medium 50 μL per well, the positive control groups were prepared by addition of cell suspension solution 100 μL per well and positive control drug solution 50 μL per well, the drug test groups were prepared by addition of cell suspension solution 100 μL per well and test compound solution 50 μL per well, and there were 5 different concentrations of drug in the positive control group and the drug test group respectively: 0.01, 0.1, 1, 10, 100 μmol·L^−1, each concentration was established with 3 parallel wells. After the drug was added, the 96-well plate was incubated for 48 h at 37° C. in a CO2 incubator of 5% CO2 and saturation humidity. Upon completion of the incubation, 20 μL MTT solution (concentration was 5 mg/mL) was added to each well and incubated for an additional 4 h, and after the 96-well plate was centrifuged at 2000 rpm for 30 min, medium of each well was suck out carefully and removed and 100 μL DMSO was added instead, followed by vibrating on a tablet shaker for 15 min to re-dissolve formazan crystals completely. OD value of each well was measured at 570 nm wavelength using an enzyme-linked immunosorbent assay reader to calculate cellular proliferation inhibitory ratio of each drug in different concentrations. And half-inhibitory concentration (IC50) was calculated using statistical software SPSS 16.0, wherein the cellular proliferation inhibitory ratio can be calculated as following equation: […]

[5] = test system: human ovarian cancer cell line 3-AO; experiment: MTT proliferation inhibition, 3-AO; assay type: cell-based; conditions: Homo sapiens, 48 h
Procedure: as §1

[6] = test system: human liver cancer cell line H7402; experiment: MTT proliferation inhibition, H7402; assay type: cell-based; conditions: Homo sapiens, H7402, 48 h
Procedure: as §1

[7] = test system: liver cancer H22; experiment: Inhibition assay of intravenous administration against liver cancer H22 (Example 33)
Procedure: Extracted the ascites from H22 ascites tumour bearing mice, washed the ascites with sterile PBS for three times and then resuspended the cells with sterile PBS (cells counts: 3.75×10^7 cells/mL), inoculated it into right oxter of Kunming mice 100 uL per mouse.
The H22 tumor-bearing mice were randomized to 4 groups (7 mice per group) after being weighted. […] The size of tumor was measured by using a vernier calliper and weight of mouse by using an electronic balance at the beginning and ending of every cycle, then calculated their mean value. The mice were sacrificed after 13 days and the tumors were taken out and weighted. Tumor volume and inhibitory ratio were calculated as the following equation (L and W referred to length and width of tumor respectively): […]

[8] = test system: human breast cancer cell line MCF-7; experiment: MTT proliferation inhibition, MCF-7; assay type: cell-based; conditions: Homo sapiens, MCF7, 48 h
Procedure: as §1

[9] = test system: cell line Hela; experiment: MTT proliferation inhibition, Hela; assay type: cell-based; conditions: Homo sapiens, 48 h
Procedure: as §1

[10] = test system: human prostate cancer cell line PC-3; experiment: MTT proliferation inhibition, PC-3; assay type: cell-based; conditions: Homo sapiens, 48 h
Procedure: as §1

[11] = test system: 7 cell lines (ES-2, K562, PC-3, MCF-7, Hela, H7402, 3-AO); experiment: MTT proliferation inhibition, all 7 tumor cell lines (summary in words); assay type: cell-based
Procedure: as §1

[12] = test system: clear-cell ovarian carcinoma cell line ES-2; experiment: MTT proliferation inhibition, ES-2; assay type: cell-based; conditions: Ovarian carcinoma cell, 48 h
Procedure: as §1

[13] = molecular target: T1, Aminopeptidase N (Sus scrofa, UniProt P15145); experiment: Inhibition activity against enzyme in vitro (aminopeptidase N, L-Leu-p-nitroanilide substrate); assay type: biochemical
T1 construct: purchased Sigma
T1 sequence (P15145 1-963): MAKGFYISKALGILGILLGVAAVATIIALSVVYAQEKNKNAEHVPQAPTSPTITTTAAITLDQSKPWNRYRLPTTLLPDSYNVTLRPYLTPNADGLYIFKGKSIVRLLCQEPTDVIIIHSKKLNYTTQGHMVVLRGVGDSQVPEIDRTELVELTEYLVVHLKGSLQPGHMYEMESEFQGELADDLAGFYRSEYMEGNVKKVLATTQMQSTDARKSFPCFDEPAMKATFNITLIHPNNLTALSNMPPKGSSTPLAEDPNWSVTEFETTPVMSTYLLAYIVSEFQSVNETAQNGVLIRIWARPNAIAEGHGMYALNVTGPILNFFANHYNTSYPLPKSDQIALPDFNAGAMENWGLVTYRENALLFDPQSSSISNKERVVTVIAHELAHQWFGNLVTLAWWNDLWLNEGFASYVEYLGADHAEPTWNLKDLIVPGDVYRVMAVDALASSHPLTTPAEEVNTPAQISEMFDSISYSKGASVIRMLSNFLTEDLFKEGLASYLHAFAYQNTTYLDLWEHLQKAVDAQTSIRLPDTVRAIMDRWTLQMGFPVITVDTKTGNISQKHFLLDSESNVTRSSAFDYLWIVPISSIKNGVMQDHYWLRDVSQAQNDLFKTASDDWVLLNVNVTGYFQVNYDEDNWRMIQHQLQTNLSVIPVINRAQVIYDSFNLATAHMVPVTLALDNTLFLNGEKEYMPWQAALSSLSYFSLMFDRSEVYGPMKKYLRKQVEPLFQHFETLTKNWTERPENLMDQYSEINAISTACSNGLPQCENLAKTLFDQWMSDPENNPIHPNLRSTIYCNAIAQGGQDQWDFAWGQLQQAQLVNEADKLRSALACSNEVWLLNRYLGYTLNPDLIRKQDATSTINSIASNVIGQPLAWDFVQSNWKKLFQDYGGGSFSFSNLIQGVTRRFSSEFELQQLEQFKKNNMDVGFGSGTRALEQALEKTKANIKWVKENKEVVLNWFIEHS
Procedure: Aminopeptidase N and L-Leu-p-nitroanilide as substrate were purchased from Sigma cooperation.
Preparation of Buffer Solution: 12.89 g Na2HPO4.12H2O and 2.18 g NaH2PO4.2H2O were dissolved in a 1000 mL volumetric flask, then the mixture was diluted to 1000 mL with fresh distilled water to obtain 50 mM Phosphate Buffer solution (PBS, pH 7.2), which was kept at room temperature to spare.
Aminopeptidase N was dissolved in the buffer solution to obtain 0.1 IU/mL solution.
The substrate was dissolved in DMSO to obtain a […] solution, which was kept in refrigerator to spare.
The aminopeptidase N solution 10 μL, the substrate solution 5 μL and compound with different concentration 40 μL were added into a 96-well cell plate, and then adjusted to 200 μL with phosphate buffer saline solution (pH 7.2). […] And the substrate solution 5 μL of blank group was adjusted to 200 μL with buffer solution. The mixture was incubated at 37° C. for 0.5 h, and absorbance was then determined at 405 nm wavelength Inhibitory ratio can be calculated as follows: […]
According to concentration of compound and corresponding inhibitory ratio, the IC50 value was calculated by using a fitting curve of Origin 7.5 software.

[14] = oral gavage, 108 mg/kg/d (0.3 mmol/kg/d)
[15] = intravenous injection, 20 mg/kg/d (0.15 mmol/kg/d)
[16] = mouse, in vivo, iv, 20 mg/kg/day
[17] = tail intravenous injection, 20 mg/kg/d, sacrificed after 13 days

O=c1[nH]c(=O)n(C2CCCO2)cc1F (stereo not drawn) [TFU]
Tumor weight ([1]; 70 mg/kg/d): 0.68 g | inhibitory ratio (%) ([1]; 70 mg/kg/d): 13.38%

CCCCCOC(=O)Nc1nc(=O)n([C@@H]2O[C@H](C)[C@@H](O)[C@H]2O)cc1F [Xeloda, capecitabine, reference compound]
Tumor growth inhibition (%) [2, 14]: 40.95% | Tumor weight [2, 14]: 0.35 ± 0.09 g | Body weight(g) Beginning [2, 14]: 33.00 ± 1.81 g | Body weight(g) Ending [2, 14]: 31.42 ± 3.56 g | Tumor weight ([1]; 100 mg/kg/d): 0.6 g | inhibitory ratio (%) ([1]; 100 mg/kg/d): 24.53% | Number of mice alive ([3]; po, 108 mg/kg/day): 7

Oc1ncc(F)c(O)n1 [Compound 5-FU, 2,4-dihydroxy-5-fluoropyrimidine, reference compound]
Tumor growth inhibition (%) [2, 15]: 10.41% | Tumor weight [2, 15]: 0.54 ± 0.06 g | Body weight(g) Beginning [2, 15]: 26.89 ± 2.06 g | Body weight(g) Ending [2, 15]: 25.51 ± 4.50 g | EC50 [4]: 16 µM | EC50 [5]: 60.8 µM | EC50 [6]: 385 µM | Number of mice alive ([7]; Kunming, mouse, in vivo, iv, 20 mg/kg/day, 13 days): 7 | Body weight(g) Beginning [7, 16]: 31.37 ± 4.05 g | Body weight(g) Ending [7, 16]: 31.92 ± 4.98 g | Tumor weight [7, 17]: 0.84 ± 0.19 g | inhibitory ratio (%) [7, 17]: 38.83% | EC50 [8]: 76.9 µM | EC50 [9]: 133 µM | Number of mice alive ([3]; iv, 20 mg/kg/day): 4 | EC50 [10]: 15.7 µM

CC(C)C[C@H](NC(=O)[C@@H](O)[C@H](N)Cc1ccccc1)C(=O)ONC(N)=O [Compound 22, (2S,3R)-3-amino-2-hydroxy-N—((S)-4-methylvaleryl)oxy)ureido)-4-phenylbutanamide hydrochloride]
EC50 [4]: 6.52 µM | EC50 [5]: 9.06 µM | EC50 [6]: 7.98 µM | EC50 [8]: 6.74 µM | anti-proliferation effect against all the tumor cells [11]: obvious anti-proliferation effect | proliferation inhibition activity compared with 5-FU [11]: much more potent than 5-FU | EC50 [9]: 5.55 µM | EC50 [12]: 5.66 µM | EC50 [10]: 13.3 µM | inhibitory activity against aminopeptidase N compared with positive control ubenimex [13]: comparable activity with ubenimex | IC50 ([13]; 37° C., 0.5 h, absorbance 405 nm, PBS pH 7.2, read-out: IC50(μM) APN): 2.92 µM

From US9861703B2 (Jinan Platinum Pharmatech Co. Ltd., priority 2013, dated 2018)
